In paper PMC5571211 (Scientific Reports, 2017):

What was measured:
[1] = system: 5-LOX product formation (FLAP) in human neutrophils; experiment: 5-LOX product formation in intact human neutrophils stimulated with Ca2+-ionophore A23187; type: cell-based; conditions: 5 h, read-out: IC50, formation of LTB4 and its isomers and of 5-H(p)ETE (5-LOX product formation); intact human neutrophils (PMNL), Ca2+-ionophore A23187, no AA supplementation
Protocol: After elution with methanol, samples were analyzed by RP-HPLC using a C-18 Radial-PAK column (Waters, Eschborn, Germany).

[2] = molecular target: T1, co-localization of 5-LOX with FLAP (Homo sapiens, UniProt P20292); experiment: Immunofluorescence microscopy of 5-LOX subcellular redistribution / co-localization with FLAP; type: cell-based; conditions: human neutrophils or monocytes; diflapolin 1 µM, MK886 0.3 µM, zileuton 3 µM
T1 construct: endogenous in cells; host or cells: freshly isolated human monocytes (immunofluorescence also in neutrophils)
T1 sequence (P20292 1-161): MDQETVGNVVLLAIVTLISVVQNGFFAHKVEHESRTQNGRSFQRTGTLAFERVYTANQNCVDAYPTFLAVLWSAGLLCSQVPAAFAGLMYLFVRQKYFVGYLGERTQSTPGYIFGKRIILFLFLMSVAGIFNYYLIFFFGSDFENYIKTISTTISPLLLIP
Protocol: The incubations were stopped by paraformaldehyde fixation (4%, 20 min, RT) and cells were permeabilized using 100% ice-cold acetone (5 min, 4 °C). Blocking with non-immune goat serum (30 min, RT) was performed prior to overnight incubation (4 °C) with primary monoclonal-mouse-anti-5-LOX antibody (1:100 dilution, a generous gift from Dr. D. Steinhilber, Goethe University Frankfurt, Germany) and polyclonal-rabbit-anti-FLAP antibody (5 µg/mL, Abcam, Cambridge, UK). […] Cells were visualized by a Zeiss Axiovert 200 M microscope, and a Plan Neofluar × 100/1.30 Oil (DIC III) objective (Carl Zeiss, Jena, Germany) and image acquisition was performed using an AxioCam MR camera (Carl Zeiss).

[3] = molecular target: T2, mPGES-1 (Homo sapiens, UniProt O14684); conditions: cited from earlier work
T2 construct: A549 cells were cultivated in DMEM medium containing FCS (2%) and IL-1β (2 ng/mL) for 72 h; endogenous in cells; host or cells: A549 cells, IL-1β-induced, microsomal fraction
T2 sequence (O14684 1-152): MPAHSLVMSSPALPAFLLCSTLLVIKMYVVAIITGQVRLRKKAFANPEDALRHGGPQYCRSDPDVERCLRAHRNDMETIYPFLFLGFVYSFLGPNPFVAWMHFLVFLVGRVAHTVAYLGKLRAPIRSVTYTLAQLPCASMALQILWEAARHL

[4] = molecular target: T3, 5-LOX/FLAP complex (Homo sapiens, UniProt P20292); experiment: Proximity ligation assay of 5-LOX/FLAP complex assembly in monocytes; type: cell-based; conditions: diflapolin 1 µM, MK886 0.3 µM, zileuton 3 µM
T3 construct: endogenous in cells; host or cells: freshly isolated human monocytes (immunofluorescence also in neutrophils)
T3 sequence (P20292 1-161): T1 sequence (P20292 1-161)
Protocol: In situ protein interaction of 5-LOX and FLAP was analyzed by proximity ligation assay as described before[37] and referring to the manufacturer’s protocol. In brief, freshly isolated monocytes were treated as described for IF above. Overnight incubations with primary antibodies were then treated for 1 h (37 °C) with oligonucleotide-labeled specific secondary antibodies (PLA probes anti-mouse MINUS and anti-rabbit PLUS). Formation of circled DNA sequences was induced by addition of ligase and oligonucleotide mixture (30 min at 37 °C). Rolling-circle-amplification of newly generated DNA template was performed (90 min, 37 °C) including hybridization of fluorescently-labeled oligonucleotides within the formed DNA strands, resulting in visualization of protein-protein interactions recognized as magenta-stained dots. Nuclear DNA staining with DAPI and image acquisition was performed as described above. Overview images were obtained using a Plan Neofluar 40/1.30 Oil (DIC III) objective (Carl Zeiss).

[5] = molecular target: T2, mPGES-1; experiment: mPGES-1 activity in microsomes of IL-1β-stimulated A549 cells; type: biochemical; conditions: cell-free, up to 10 µM
Protocol: To perform the analysis of microsomal PGE2 synthase (mPGES)-1 activity, microsomal preparations of A549 cells were obtained as described before. Briefly, A549 cells were cultivated in DMEM medium containing FCS (2%) and IL-1β (2 ng/mL) for 72 h (37 °C, 5% CO2). Cells were harvested and resuspended in homogenization buffer consisting of potassium phosphate (0.1 M, pH 7.4), phenylmethanesulfonyl fluoride (1 mM), soybean trypsin inhibitor (60 µg/mL), leupeptin (1 µg/mL), glutathione (2.5 mM), and sucrose (250 mM). After freezing the cells in liquid nitrogen and sonication (3 × 20 s), a differential centrifugation at 10,000 g (10 min, 4 °C) and 174,000 × g (60 min, 4 °C) was performed and pellets were resuspended in homogenization buffer. […] After stimulation (1 min, 4 °C) with 20 µM PGH2 the reaction was terminated by addition of stop solution containing FeCl3 (40 mM), citric acid (80 mM), and 11β-PGE2 (10 µM as internal standard) and analyzed for PGE2 product formation by RP-HPLC as reported before.

[6] = system: AA release (cPLA2) in neutrophils; experiment: [3H]-labeled arachidonic acid release in neutrophils; type: cell-based, human; conditions: [3H]AA-pre-labelled neutrophils; diflapolin 1 µM, RSC-3388 10 µM
Protocol: Freshly isolated human neutrophils were resuspended in RPMI 1640 medium to a final cell density of 10^7 cells/mL and incubated with 0.5 µCi/mL of [^3H]-labeled arachidonic acid ([^3H]-AA), corresponding to a concentration of 5 nM of the fatty acid, for 2 hrs (37 °C, 5% CO2). Cells were washed twice to remove unincorporated [^3H]-AA and resuspended in PBS containing glucose (0.1%), fatty acid-free BSA (2 mg/mL) and CaCl2 (1 mM). […] The reaction was stopped on ice and cells were centrifuged at 1,200 rpm (10 min, 4 °C). The collected supernatants were combined with 2 mL of liquid scintillation counting solution (Rotiszint eco plus, Carl Roth, Karlsruhe, Germany) and assayed for radioactivity by scintillation counting (Micro Beta Trilux, Perkin Elmer, Waltham, MA).

IC50 [1] [nM]	5-LOX/FLAP complex assembly (PLA) [4]	SMILES	co-localization of 5-LOX with FLAP [2]	inhibition of MAPEG family member mPGES-1 [3]	inhibition of mPGES-1 activity [5]	release of AA upon A23187-stimulation [6]
10 to 14	comparable effects	CC(C)c1ccc2c(c1)c(SC(C)(C)C)c(CC(C)(C)C(=O)O)n2Cc1ccc(Cl)cc1 [MK886, 3-[1-(4-chlorobenzyl)-3-t-butyl-thio-5-isopropylindol-2-yl]-2,2 - dimethylpropanoic acid]	neither diflapolin nor the FLAP inhibitor MK886 or the 5-LOX inhibitor zileuton prevented co-localization	inhibit	–	–
–	–	Cc1cc(OCc2nc3ccccc3s2)ccc1NC(=O)Nc1ccc(Cl)c(Cl)c1 [diflapolin, N-[4-(benzothiazol-2-ylmethoxy)-2-methylphenyl]-N′-(3,4-dichlorophenyl)urea]	–	–	failed to inhibit	did not inhibit
